These molecules were tested on Beet Armyworm (Spodoptera exigua) (assay: Bioassays on BAW, 128-well diet tray assay). Conditions: percent mortality, second instar larvae, 50 μg/cm^2 on artificial diet, five to seven days, 25° C.; Table 3.
Format: in vivo
Protocol: Certain molecules disclosed in this document were tested against BAW and CEW and CL using procedures described in the following examples. In the reporting of the results, the “BAW & CEW & CL Rating Table” was used (See Table Section).
Bioassays on BAW (Spodoptera exigua)
Bioassays on BAW were conducted using a 128-well diet tray assay. one to five second instar BAW larvae were placed in each well (3 mL) of the diet tray that had been previously filled with 1 mL of artificial diet to which 50 μg/cm^2 of the test compound (dissolved in 50 μL of 90:10 acetone-water mixture) had been applied (to each of eight wells) and then allowed to dry. Trays were covered with a clear self-adhesive cover, and held at 25° C., 14:10 light-dark for five to seven days. Percent mortality was recorded for the larvae in each well; activity in the eight wells was then averaged. The results are indicated in the table entitled “Table 3: Assay Results” (See Table Section).

Structure (SMILES)	BAW Rating
O=C(NCc1ccc(/C=C/C(c2cc(Cl)c(Cl)c(Cl)c2)C(F)(F)F)cc1Br)C1CC1 (stereo not shown) [CC26]	A (50-100)
O=C(CC(F)(F)F)NCc1ccc(/C=C/C(c2cc(Cl)c(Cl)c(Cl)c2)C(F)(F)F)cc1F (stereo not shown) [CC27]	A (50-100)
O=C(NCc1ccc(/C=C/C(c2cc(Cl)c(Cl)c(Cl)c2)C(F)(F)F)cc1F)C1CC1 (stereo not shown) [CC28]	A (50-100)
O=C(C1CC1)N(Cc1ccccn1)Cc1ccc(/C=C/C(c2cc(Cl)c(Cl)c(Cl)c2)C(F)(F)F)cc1C(F)(F)F (stereo not shown) [CC29, (E)-N-(Pyridin-2-ylmethyl)-N-(4-(4,4,4-trifluoro-3-(3,4,5-trichlorophenyl)but-1-enyl)-2-(trifluoromethyl)benzyl)cyclopropanecarboxamide]	A (50-100)
CS(=O)(=O)CCC(=O)NCc1ccc(/C=C/C(c2cc(Cl)c(Cl)c(Cl)c2)C(F)(F)F)cc1Cl (stereo not shown) [CC30, (E)-N-(2-Chloro-4-(4,4,4-trifluoro-3-(3,4,5-trichlorophenyl)but-1-en-1-yl)benzyl)-3-(methylsulfonyl)propanamide]	A (50-100)
CCNC(=O)NCc1ccc(/C=C/C(c2cc(Cl)cc(Cl)c2)C(F)(F)F)cc1Cl (stereo not shown) [CC31, (E)-1-(2-Chloro-4-(3-(3,5-dichlorophenyl)-4,4,4-trifluorobut-1-en-1-yl)benzyl)-3-ethylurea]	B (More than 0-Less than 50)
CCNC(=O)NCc1ccc(/C=C/C(c2cc(Cl)c(Cl)c(Cl)c2)C(F)(F)F)cc1C(F)(F)F (stereo not shown) [CC32]	A (50-100)
CCNC(=O)NCc1ccc(/C=C/C(c2cc(Cl)c(Cl)c(Cl)c2)C(F)(F)F)cc1Br (stereo not shown) [CC33]	A (50-100)
O=C(NCc1ccc(/C=C/C(c2cc(Cl)c(Cl)c(Cl)c2)C(F)(F)F)cc1Cl)N1CCOCC1 (stereo not shown) [CC34]	A (50-100)
CN(C)C(=O)NCc1ccc(/C=C/C(c2cc(Cl)c(Cl)c(Cl)c2)C(F)(F)F)cc1Cl (stereo not shown) [CC36, (E)-3-(2-Chloro-4-(4,4,4-trifluoro-3-(3,4,5-trichlorophenyl)but-1-en-1-yl)benzyl)-1,1-dimethylurea]	A (50-100)
CCNC(=S)NCc1ccc(/C=C/C(c2cc(Cl)c(Cl)c(Cl)c2)C(F)(F)F)cc1Cl (stereo not shown) [CC37, (E)-1-(2-Chloro-4-(4,4,4-trifluoro-3-(3,4,5-trichlorophenyl)but-1-en-1-yl)benzyl)-3-ethylthiourea]	A (50-100)
C=CCNC(=S)NCc1ccc(/C=C/C(c2cc(Cl)c(Cl)c(Cl)c2)C(F)(F)F)cc1Cl (stereo not shown) [CC38]	A (50-100)
FC(F)(F)C(/C=C/c1ccc(CNc2ccccn2)c(Cl)c1)c1cc(Cl)c(Cl)c(Cl)c1 (stereo not shown) [CC43, (E)-N-(2-Chloro-4-(4,4,4-trifluoro-3-(3,4,5-trichlorophenyl)but-1-en-1-yl)benzyl)pyridin-2-amine]	A (50-100)
O=C(CC(F)(F)F)NCc1ncc(/C=C/C(c2cc(Cl)c(Cl)c(Cl)c2)C(F)(F)F)cc1Cl (stereo not shown) [CC44, (E)-N-((3-Chloro-5-(4,4,4-trifluoro-3-(3,4,5-trichlorophenyl)-but-1-en-1-yl)pyridin-2-yl)methyl)-3,3,3-trifluoropropanamide]	A (50-100)
O=C(NCc1ncc(/C=C/C(c2cc(Cl)c(Cl)c(Cl)c2)C(F)(F)F)cc1Cl)C1CC1 (stereo not shown) [CC45]	A (50-100)
O=C(NNc1ccc(/C=C/C(c2cc(Cl)c(Cl)c(Cl)c2)C(F)(F)F)cc1)C1CC1 (stereo not shown) [CC50, (E)-N′-(4-(4,4,4-Trifluoro-3-(3,4,5-trichlorophenyl)but-1-en-1-yl)phenyl)cyclopropanecarbohydrazide]	A (50-100)
O=C(CC(F)(F)F)NNc1ccc(/C=C/C(c2cc(Cl)c(Cl)c(Cl)c2)C(F)(F)F)cc1 (stereo not shown) [CC51]	A (50-100)
O=C(NOc1ccc(/C=C/C(c2cc(Cl)c(Cl)c(Cl)c2)C(F)(F)F)cc1)C1CC1 (stereo not shown) [CC52, (E)-N-(4-(4,4,4-Trifluoro-3-(3,4,5-trichlorophenyl)but-1-en-1-yl)phenoxy)cyclopropanecarboxamide]	A (50-100)
O=C(CC(F)(F)F)NCc1ccc(/C=C\C(c2cc(Cl)c(Cl)c(Cl)c2)C(F)(F)F)cc1 (stereo not shown) [CC54, (Z)-3,3,3-Trifluoro-N-(4-(4,4,4-trifluoro-3-(3,4,5-trichlorophenyl)but-1-en-1-yl)benzyl)propanamide]	A (50-100)
FC(F)(F)C(/C=C/c1ccc(-n2cncn2)cc1)c1cc(Cl)cc(Cl)c1 (stereo not shown) [DC1, (E)-1-(4-(3-(3,5-Dichlorophenyl)-4,4,4-trifluorobut-1-en-1-yl)phenyl)-1H-1,2,4-triazole]	A (50-100)
FC(F)(F)C(/C=C/c1ccc(-n2cncn2)cc1)c1ccccc1 (stereo not shown) [DC3]	B (More than 0-Less than 50)
FC(F)(F)C(/C=C/c1ccc(-n2cncn2)cc1)c1ccc(Cl)cc1 (stereo not shown) [DC4]	A (50-100)
Fc1ccc(C(/C=C/c2ccc(-n3cncn3)cc2)C(F)(F)F)cc1 (stereo not shown) [DC7]	A (50-100)
Fc1cc(F)cc(C(/C=C/c2ccc(-n3cncn3)cc2)C(F)(F)F)c1 (stereo not shown) [DC8]	A (50-100)
Cc1cc(C)cc(C(/C=C/c2ccc(-n3cncn3)cc2)C(F)(F)F)c1 (stereo not shown) [DC11]	A (50-100)
FC(F)(F)C(/C=C/c1ccc(-n2cncn2)cc1)c1ccc(Cl)c(Cl)c1 (stereo not shown) [DC12]	A (50-100)

Structure (SMILES)	BAW Rating
FC(F)(F)c1cc(C(/C=C/c2ccc(-n3cncn3)cc2)C(F)(F)F)cc(C(F)(F)F)c1 (stereo not shown) [DC16]	A (50-100)
COc1c(Cl)cc(C(/C=C/c2ccc(-n3cncn3)cc2)C(F)(F)F)cc1Cl (stereo not shown) [DC20]	A (50-100)
N#Cc1cc(/C=C/C(c2cc(Cl)cc(C(F)(F)F)c2)C(F)(F)F)ccc1-n1cncn1 (stereo not shown) [DC33]	A (50-100)
COc1c(Cl)cc(C(/C=C/c2ccc(-n3cncn3)c(C#N)c2)C(F)(F)F)cc1Cl (stereo not shown) [DC34]	A (50-100)
N#Cc1cc(/C=C/C(c2cc(Cl)c(F)c(Cl)c2)C(F)(F)F)ccc1-n1cncn1 (stereo not shown) [DC35]	A (50-100)
N#Cc1cc(/C=C/C(c2cc(Cl)cc(Cl)c2)C(F)(F)F)ccc1-n1cnc([N+](=O)[O-])n1 (stereo not shown) [DC37]	A (50-100)
N#Cc1cc(/C=C/C(c2cc(Cl)cc(Cl)c2)C(F)(F)F)ccc1-n1cnc(N)n1 (stereo not shown) [DC38]	A (50-100)
CC(=O)Nc1ncn(-c2ccc(/C=C/C(c3cc(Cl)cc(Cl)c3)C(F)(F)F)cc2C#N)n1 (stereo not shown) [DC39]	A (50-100)
N#Cc1cc(/C=C/C(c2cc(Cl)c(Cl)c(Cl)c2)C(F)(F)F)ccc1-n1cnc([N+](=O)[O-])n1 (stereo not shown) [DC40, (E)-2-(3-Nitro-1H-1,2,4-triazol-1-yl)-5-(4,4,4-trifluoro-3-(3,4,5-trichlorophenyl)but-1-en-1-yl)benzonitrile]	A (50-100)
N#Cc1cc(/C=C/C(c2cc(Cl)c(Cl)c(Cl)c2)C(F)(F)F)ccc1-n1cnc(N)n1 (stereo not shown) [DC41, (E)-2-(3-Amino-1H-1,2,4-triazol-1-yl)-5-(4,4,4-trifluoro-3-(3,4,5-trichlorophenyl)but-1-en-1-yl)benzonitrile]	A (50-100)
N#Cc1cc(/C=C/C(c2cc(Cl)c(Cl)c(Cl)c2)C(F)(F)F)ccc1-n1cnc(N(C(=O)C2CC2)C(=O)C2CC2)n1 (stereo not shown) [DC42, (E)-N-(1-(2-Cyano-4-(4,4,4-trifluoro-3-(3,4,5-trichlorophenyl)but-1-en-1-yl)phenyl)-1H-1,2,4-triazol-3-yl)-N-(cyclopropanecarbonyl)cyclopropanecarboxamide]	A (50-100)
N#Cc1cc(/C=C/C(c2cc(Cl)c(Cl)c(Cl)c2)C(F)(F)F)ccc1-n1cnc(NC(=O)C2CC2)n1 (stereo not shown) [DC43, (E)-N-(1-(2-Cyano-4-(4,4,4-trifluoro-3-(3,4,5-trichlorophenyl)but-1-en-1-yl)phenyl)-1H-1,2,4-triazol-3-yl)cyclopropanecarboxamide]	A (50-100)
Cc1cc(/C=C/C(c2cc(Cl)cc(Cl)c2)C(F)(F)F)cc(C#N)c1-n1cncn1 (stereo not shown) [DC44]	A (50-100)
Cc1cc(/C=C/C(c2cc(Cl)c(Cl)c(Cl)c2)C(F)(F)F)cc(C#N)c1-n1cncn1 (stereo not shown) [DC45]	A (50-100)
N#Cc1cc(/C=C\C(c2cc(Cl)c(F)c(Cl)c2)C(F)(F)F)ccc1-n1cncn1 (stereo not shown) [DC46]	A (50-100)
FC(F)(F)C(/C=C/c1ccc(-n2cncn2)c(Br)c1)c1cc(Cl)cc(Cl)c1 (stereo not shown) [DC47]	A (50-100)
Fc1cc(/C=C/C(c2cc(Cl)cc(Cl)c2)C(F)(F)F)ccc1-n1cncn1 (stereo not shown) [DC48]	A (50-100)
FC(F)(F)C(/C=C/c1ccc(-n2cncn2)c(Cl)c1)c1cc(Cl)c(Cl)c(Cl)c1 (stereo not shown) [DC49]	A (50-100)
FC(F)(F)C(/C=C/c1ccc(-n2cncn2)c(Cl)c1)c1cc(Cl)cc(Cl)c1 (stereo not shown) [DC50]	A (50-100)
FC(F)(F)c1cc(/C=C/C(c2cc(Cl)cc(Cl)c2)C(F)(F)F)ccc1-n1cncn1 (stereo not shown) [DC51]	A (50-100)
CNc1cc(/C=C/C(c2cc(Cl)cc(Cl)c2)C(F)(F)F)ccc1-n1cncn1 (stereo not shown) [DC57, (E)-5-(3-(3,5-Dichlorophenyl)-4,4,4-trifluorobut-1-en-1-yl)-N-methyl-2-(1H-1,2,4-triazol-1-yl)aniline]	A (50-100)
CCOC(=O)c1cc(/C=C/C(c2cc(Cl)cc(Cl)c2)C(F)(F)F)ccc1-n1cncn1 (stereo not shown) [DC60]	A (50-100)
Cc1cc(/C=C/C(c2cc(Cl)cc(Cl)c2)C(F)(F)F)ccc1-n1cncn1 (stereo not shown) [DC62]	A (50-100)
Cc1cc(/C=C/C(c2cc(Cl)c(Cl)c(Cl)c2)C(F)(F)F)ccc1-n1cncn1 (stereo not shown) [DC63]	A (50-100)
FC(F)(F)C(/C=C/c1ccc(-n2cncn2)cc1Cl)c1cc(Cl)c(Cl)c(Cl)c1 (stereo not shown) [DC66]	A (50-100)
FC(F)(F)C(/C=C/c1ccc(-n2cncn2)cc1Cl)c1cc(Cl)cc(Cl)c1 (stereo not shown) [DC67]	A (50-100)
